Experimental data from article PMC4309955 (Scientific Reports, 2015).
pIC50: −log10 of the molar value.

How the values were obtained:
[1] = target: T1, human AT1R (angiotensin II type 1 receptor) (Homo sapiens, UniProt P30556); assay: inhibition of AngII-induced G protein activation, cell impedance; assay type: cell-based
T1 sequence (P30556 1-359): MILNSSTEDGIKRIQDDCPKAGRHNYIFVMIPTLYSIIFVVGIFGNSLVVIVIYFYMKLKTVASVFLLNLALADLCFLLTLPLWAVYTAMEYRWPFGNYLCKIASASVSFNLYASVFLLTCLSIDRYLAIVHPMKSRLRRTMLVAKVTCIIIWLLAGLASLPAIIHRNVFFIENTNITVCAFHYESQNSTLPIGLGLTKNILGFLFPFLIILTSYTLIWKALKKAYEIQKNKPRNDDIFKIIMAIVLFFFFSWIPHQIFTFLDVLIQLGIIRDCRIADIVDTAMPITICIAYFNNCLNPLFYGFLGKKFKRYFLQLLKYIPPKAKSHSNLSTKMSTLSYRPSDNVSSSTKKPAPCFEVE

[2] = target: T1, human AT1R (angiotensin II type 1 receptor); assay: inhibition of AngII-induced beta-arrestin activation, cell impedance; assay type: cell-based

pIC50 [1]	pIC50 [2]	Structure (SMILES)
8.80	8.80	CCOc1nc2cccc(C(=O)O)c2n1Cc1ccc(-c2ccccc2-c2noc(=O)[nH]2)cc1 [Azilsartan]
8.70	9.15	CCOc1nc2cccc(C(=O)O)c2n1Cc1ccc(-c2ccccc2-c2nnn[nH]2)cc1 [Candesartan]
8.33	8.12	CCCCc1ncc(/C=C(\Cc2cccs2)C(=O)O)n1Cc1ccc(C(=O)O)cc1 [Eprosartan]
7.84	7.69	CCCc1nc(C(C)(C)O)c(C(=O)O)n1Cc1ccc(-c2ccccc2-c2nnn[nH]2)cc1 [Olmesartan]
